{"source": "paper PMC9598469", "about": "“Analysis of Antioxidant Constituents from Ilex rotunda and Evaluation of Their Blood–Brain Barrier Permeability” (Antioxidants, 2022)", "key": {"[1]": {"set-up": "method as in PMID 23565574", "conditions": "cited from earlier work"}, "[2]": {"assay": "HPLC-DPPH screening: peak area reduction in I. rotunda twig extract", "assay_type": "biochemical", "conditions": "between DPPH treated and untreated samples in the I. rotunda extract, untreated = 100%", "description": "(§1) An amount of 100 μL of the I. rotunda extract (1.3 mg/mL) dissolved in methanol and 100 μL of the DPPH solution (1.2 mg/mL in methanol) were mixed and incubated for 30 min at 37 °C, protected from light. After that, the mixture was filtered through a 0.22 μm filter for HPLC analysis. The control sample was prepared by mixing 100 μL methanol with 100 μL of the extract. Both mixtures were analyzed using the same established analytical methods. The outflow was monitored at 254 and 326 nm wavelength. […] The ELISA assay was performed by following procedure. A 100 μL of DPPH solution (0.2 mM) was added to 100 μL of the sample on a 96-well plate, mixed for 5 s, and reacted for 30 min under shade. The absorbance was measured at 517 nm using a microplate spectrophotometer (Epoch, Biotek Instruments, Inc., Winooski, VT, USA). […] Ascorbic acid (100 μg/mL) (Sigma–Aldrich, Co., St. Louis, MO, USA) was used as the positive control."}, "[3]": {"assay": "Parallel artificial membrane permeability assay for the blood–brain barrier (PAMPA-BBB)", "assay_type": "in vitro ADME", "conditions": "for Cross BBB Potential: single compounds at 10 mM, classification based on Könczöl et al.; for Papp at 4 h, 1 mM: single compounds at concentration of 10 mM (stock), read-out: BBB Permeability log Pe (converted)", "description": "The PAMPA-BBB experiment was carried out according to the study by Könczöl et al.. A slightly modified version of the PAMPA-BBB was used to assess effective permeability (Pe, cm/s) of compounds of I. rotunda. Briefly, 20 μL of stock solution of I. rotunda extract (10 mg/mL in MeOH) or test compound (10 mM in MeOH) was mixed with 180 μL of phosphate buffered saline (PBS, pH 7.4, 10 mM) to obtain the starting donor solution. Subsequently, the filter membrane of the donor (top) plate (96-well polycarbonate-based filter plate, Multiscreen-IP, MAIPTR10, pore size 0.45 μm, Milipore) was coated with 5 μL of porcine polar brain lipid extract (PBLE) solution (16.0 mg PBLE + 8.0 mg cholesterol dissolved in 600.0 μL n-dodecane). Then, 150.0 μL of the filtrate was placed on the membrane. The bottom (acceptor) plate (96-well microtiter plate, Multiscreen®, MATRNPS50, Milipore) was filled with 300.0 μL buffer solution (PBS, pH 7.4, 10 mM). The donor plate was carefully located on the acceptor plate to form a “sandwich”. It was incubated at 37 °C for 4 h without direct right exposure. After incubation, PAMPA plates were separated. Concentrations of identified compounds of I. rotunda in the starting donor solution and in acceptor and donor wells were determined in triplicate based on chromatographic peak areas derived from the same established analytical methods. […] Pe=−ln1−CA(t)/Cequilibrium /A×1/VD1/VA×t where Pe is permeability in cm s^−1. A = effective filter area = f × 0.3 cm^2; VD = donor well volume = 150 μL; VA = acceptor well volume = 300 μL; t = incubation time (s) = 14,400; CA(t) = compound concentration in the acceptor well at time t; and CD(t) = compound concentration in the donor well at time t. Cequilibrium is calculated as follows: Cequilibrium=CD(t)×VD+CA(t)×VA/VD+VA"}, "[4]": {"assay": "DPPH method on ELISA (96-well microplate) for isolated compounds", "assay_type": "biochemical", "conditions": "compounds 2.5 to 40 μM, 30 min, 517 nm; read-out: EC50 Values (μM), DPPH radical", "description": "The radical scavenging effect of 2,2-diphenyl-1-picrylhydrazyl (DPPH; Thermo Fisher Scientific, Ward Hill, MA, USA) was measured using our previous method. Briefly, 0.1 mL of each sample solution (dissolved in EtOH) was mixed with 0.1 mL of 0.2 mM DPPH and allowed to stand at RT for 30 min under shade. The absorbance at 517 nm was measured using a microplate spectrophotometer (Epoch, Biotek Instruments, Inc., Winooski, VT, USA). Ascorbic acid (100 μg/mL) (Sigma–Aldrich, Co., St. Louis, MO, USA) was used as a positive control. The percentage of DPPH reduction between the treated sample and negative control well was calculated with the following formula: %EC = (A control − A sample) * 100/(A control), where A sample was the absorbance of the sample and A control was the absorbance of untreated sample. Results are indicated as EC50, which correspond to the sample concentration (μg/mL) required to inhibition by 50% of the initial DPPH radical scavenging activity under the given experimental conditions.\nas §1"}, "[5]": {"conditions": "I. rotunda extract test, t = 14,400 s"}}, "note": "Where two headings read alike, the source gives them in different places.", "data": [{"molecule": "C[C@@H]1O[C@@H](OC[C@H]2O[C@@H](Oc3c(-c4ccc(O)c(O)c4)oc4cc(O)cc(O)c4c3=O)[C@H](O)[C@@H](O)[C@@H]2O)[C@H](O)[C@H](O)[C@H]1O", "note": "[Compound 3, Rutin]", "values": [{"measurement": "BBB permeability (in words)", "setting": "[1]", "value": "poor permeability"}, {"measurement": "Reduction of the Peak Area (%)", "setting": "[2]", "value": "21.45 ± 0.90", "unit": "%"}, {"measurement": "Cross BBB Potential", "setting": "[3]", "value": "- (not detected in acceptor or log Pe < −6.0)"}]}, {"molecule": "O=C(O)/C=C/c1ccc(O)c(O)c1", "note": "[caffeic acid, reference compound]", "values": [{"measurement": "Papp at 4 h, 1 mM", "setting": "[3]; PAMPA, pH 7.4, 37 °C, 4 h", "value": 0.000832, "unit": "×10⁻⁶ cm/s"}, {"measurement": "Cross BBB Potential", "setting": "[3]", "value": "- (not detected in acceptor or log Pe < −6.0)"}]}, {"molecule": "O=C(C=Cc1ccc(O)c(O)c1)OC1CC(O)(C(=O)O)CC(O)C1OC(=O)C=Cc1ccc(O)c(O)c1", "note": "(stereo not drawn) [Compound 5, 3,4-Dicaffeoylquinic acid]", "values": [{"measurement": "Reduction of the Peak Area (%)", "setting": "[2]", "value": "45.24 ± 0.67", "unit": "%"}, {"measurement": "Cross BBB Potential", "setting": "[3]", "value": "- (not detected in acceptor or log Pe < −6.0)"}]}, {"molecule": "O=C(/C=C/c1ccc(O)c(O)c1)O[C@@H]1[C@H](O)C[C@@](O)(C(=O)O)C[C@H]1OC(=O)/C=C/c1ccc(O)c(O)c1", "note": "[Compound 7, 4,5-Dicaffeoylquinic acid]", "values": [{"measurement": "Reduction of the Peak Area (%)", "setting": "[2]", "value": 83.67, "unit": "%"}, {"measurement": "Reduction of the Peak Area (%)", "setting": "[2]; listed as 4,5-dicaffeoylquinic acid (7)", "value": "83.67 ± 0.19", "unit": "%"}, {"measurement": "EC50", "setting": "[4]", "value": "13.8 ± 0.24", "unit": "µM"}, {"measurement": "Concentration of acceptor solution CA(t)", "setting": "[3]; [5]", "value": 6.62, "unit": "µg/mL"}, {"measurement": "Concentration of donor solution CD(t)", "setting": "[3]; [5]", "value": 287.86, "unit": "µg/mL"}, {"measurement": "BBB permeability (in words)", "setting": "[3]; PAMPA-BBB, extract and 10 mM tests", "value": "moderate BBB permeability"}, {"measurement": "Papp at 4 h, 1 mg/mL extract", "setting": "[3]; PAMPA, compound within I. rotunda extract (10 mg/mL stock), pH 7.4, 37 °C, 4 h, read-out: BBB permeability log Pe (converted)", "value": 1.58, "unit": "×10⁻⁶ cm/s"}, {"measurement": "Papp at 4 h, 1 mM", "setting": "[3]; PAMPA, pH 7.4, 37 °C, 4 h", "value": 1.41, "unit": "×10⁻⁶ cm/s"}, {"measurement": "Cross BBB Potential", "setting": "[3]", "value": "+ (log Pe > −6.0)"}]}, {"molecule": "O=C(/C=C/c1ccc(O)c(O)c1)O[C@@H]1C[C@](O)(C(=O)O)C[C@@H](OC(=O)/C=C/c2ccc(O)c(O)c2)[C@H]1O", "note": "[Compound 6, 3,5-Dicaffeoylquinic acid]", "values": [{"measurement": "Reduction of the Peak Area (%)", "setting": "[2]", "value": 58.88, "unit": "%"}, {"measurement": "Reduction of the Peak Area (%)", "setting": "[2]; listed as 3,5-dicaffeoylquinic acid (6)", "value": "58.88 ± 0.44", "unit": "%"}, {"measurement": "EC50", "setting": "[4]", "value": "10.88 ± 0.04", "unit": "µM"}, {"measurement": "Cross BBB Potential", "setting": "[3]", "value": "- (not detected in acceptor or log Pe < −6.0)"}]}, {"molecule": "CC(=CCOC1OC(CO)C(O)C(O)C1O)COC(=O)C=Cc1ccc(O)c(O)c1", "note": "(stereo not drawn) [Compound 4, Rotundarpenoside B]", "values": [{"measurement": "Reduction of the Peak Area (%)", "setting": "[2]", "value": "18.99 ± 0.90", "unit": "%"}, {"measurement": "Cross BBB Potential", "setting": "[3]", "value": "- (not detected in acceptor or log Pe < −6.0)"}]}, {"molecule": "COc1cc(/C=C/CO)cc(OC)c1O[C@@H]1O[C@H](CO)[C@@H](O)[C@H](O)[C@H]1O", "note": "[Compound 1, Syringin]", "values": [{"measurement": "Reduction of the Peak Area (%)", "setting": "[2]", "value": "6.98 ± 0.44", "unit": "%"}, {"measurement": "Cross BBB Potential", "setting": "[3]", "value": "- (not detected in acceptor or log Pe < −6.0)"}]}, {"molecule": "O=c1ccc2ccccc2o1", "note": "[coumarin, reference compound]", "values": [{"measurement": "Papp at 4 h, 1 mM", "setting": "[3]; PAMPA, pH 7.4, 37 °C, 4 h", "value": 28.8, "unit": "×10⁻⁶ cm/s"}, {"measurement": "Cross BBB Potential", "setting": "[3]", "value": "++ (log Pe > −5.0)"}]}, {"molecule": "O=C(/C=C/c1ccc(O)c(O)c1)O[C@@H]1C[C@](O)(C(=O)O)C[C@@H](OC(=O)/C=C/c2ccc(O)c(O)c2)[C@H]1OC(=O)/C=C/c1ccc(O)c(O)c1", "note": "[Compound 8, 3,4,5-Tricaffeoylquinic acid]", "values": [{"measurement": "Reduction of the Peak Area (%)", "setting": "[2]", "value": 67.25, "unit": "%"}, {"measurement": "Reduction of the Peak Area (%)", "setting": "[2]; listed as 3,4,5-tricaffeoylquinic acid (8)", "value": "67.25 ± 1.00", "unit": "%"}, {"measurement": "EC50", "setting": "[4]", "value": "10.9 ± 0.14", "unit": "µM"}, {"measurement": "Cross BBB Potential", "setting": "[3]", "value": "- (not detected in acceptor or log Pe < −6.0)"}]}, {"molecule": "O=C1O[C@H]([C@@H](O)CO)C(O)=C1O", "note": "[Ascorbic acid, reference compound]", "values": [{"measurement": "EC50", "setting": "[4]", "value": "22.6 ± 0.77", "unit": "µM"}]}, {"molecule": "O=C(/C=C/c1ccc(O)c(O)c1)O[C@@H]1C[C@](O)(C(=O)O)C[C@@H](O)[C@H]1O", "note": "[Compound 2, Chlorogenic acid]", "values": [{"measurement": "BBB permeability (in words)", "setting": "[1]", "value": "poor permeability"}, {"measurement": "Cross BBB Potential", "setting": "[3]", "value": "- (not detected in acceptor or log Pe < −6.0)"}]}]}
